The text below walks through data of US9845313B2, “Cycloalkane derivatives” (Daiichi Sankyo Company, Limited, priority 2012, dated 2017).

One experiment deals with hNav1.7 (Homo sapiens (Human), UniProt Q15858). Kind of experiment: Electrophysiological evaluation, automated patch clamp IonWorks Quattro, hNav 1.7/β1/β2 HEK293A cells. It counts as cell-based. Conditions: response caused by the second depolarization pulse (pre-pulse potential set to V1/2); HEK293A hNav 1.7/β1/β2 cells; Population Patch Clamp. On the technique in general: The patch-clamp technique gives a direct electrical read-out from membranes.

For experiment [1], the system named is patients of painful diabetic neuropathy. The note with it: cited from earlier work.

Structures are written as SMILES.

hNav1.7, sequence (Q15858 whole entry): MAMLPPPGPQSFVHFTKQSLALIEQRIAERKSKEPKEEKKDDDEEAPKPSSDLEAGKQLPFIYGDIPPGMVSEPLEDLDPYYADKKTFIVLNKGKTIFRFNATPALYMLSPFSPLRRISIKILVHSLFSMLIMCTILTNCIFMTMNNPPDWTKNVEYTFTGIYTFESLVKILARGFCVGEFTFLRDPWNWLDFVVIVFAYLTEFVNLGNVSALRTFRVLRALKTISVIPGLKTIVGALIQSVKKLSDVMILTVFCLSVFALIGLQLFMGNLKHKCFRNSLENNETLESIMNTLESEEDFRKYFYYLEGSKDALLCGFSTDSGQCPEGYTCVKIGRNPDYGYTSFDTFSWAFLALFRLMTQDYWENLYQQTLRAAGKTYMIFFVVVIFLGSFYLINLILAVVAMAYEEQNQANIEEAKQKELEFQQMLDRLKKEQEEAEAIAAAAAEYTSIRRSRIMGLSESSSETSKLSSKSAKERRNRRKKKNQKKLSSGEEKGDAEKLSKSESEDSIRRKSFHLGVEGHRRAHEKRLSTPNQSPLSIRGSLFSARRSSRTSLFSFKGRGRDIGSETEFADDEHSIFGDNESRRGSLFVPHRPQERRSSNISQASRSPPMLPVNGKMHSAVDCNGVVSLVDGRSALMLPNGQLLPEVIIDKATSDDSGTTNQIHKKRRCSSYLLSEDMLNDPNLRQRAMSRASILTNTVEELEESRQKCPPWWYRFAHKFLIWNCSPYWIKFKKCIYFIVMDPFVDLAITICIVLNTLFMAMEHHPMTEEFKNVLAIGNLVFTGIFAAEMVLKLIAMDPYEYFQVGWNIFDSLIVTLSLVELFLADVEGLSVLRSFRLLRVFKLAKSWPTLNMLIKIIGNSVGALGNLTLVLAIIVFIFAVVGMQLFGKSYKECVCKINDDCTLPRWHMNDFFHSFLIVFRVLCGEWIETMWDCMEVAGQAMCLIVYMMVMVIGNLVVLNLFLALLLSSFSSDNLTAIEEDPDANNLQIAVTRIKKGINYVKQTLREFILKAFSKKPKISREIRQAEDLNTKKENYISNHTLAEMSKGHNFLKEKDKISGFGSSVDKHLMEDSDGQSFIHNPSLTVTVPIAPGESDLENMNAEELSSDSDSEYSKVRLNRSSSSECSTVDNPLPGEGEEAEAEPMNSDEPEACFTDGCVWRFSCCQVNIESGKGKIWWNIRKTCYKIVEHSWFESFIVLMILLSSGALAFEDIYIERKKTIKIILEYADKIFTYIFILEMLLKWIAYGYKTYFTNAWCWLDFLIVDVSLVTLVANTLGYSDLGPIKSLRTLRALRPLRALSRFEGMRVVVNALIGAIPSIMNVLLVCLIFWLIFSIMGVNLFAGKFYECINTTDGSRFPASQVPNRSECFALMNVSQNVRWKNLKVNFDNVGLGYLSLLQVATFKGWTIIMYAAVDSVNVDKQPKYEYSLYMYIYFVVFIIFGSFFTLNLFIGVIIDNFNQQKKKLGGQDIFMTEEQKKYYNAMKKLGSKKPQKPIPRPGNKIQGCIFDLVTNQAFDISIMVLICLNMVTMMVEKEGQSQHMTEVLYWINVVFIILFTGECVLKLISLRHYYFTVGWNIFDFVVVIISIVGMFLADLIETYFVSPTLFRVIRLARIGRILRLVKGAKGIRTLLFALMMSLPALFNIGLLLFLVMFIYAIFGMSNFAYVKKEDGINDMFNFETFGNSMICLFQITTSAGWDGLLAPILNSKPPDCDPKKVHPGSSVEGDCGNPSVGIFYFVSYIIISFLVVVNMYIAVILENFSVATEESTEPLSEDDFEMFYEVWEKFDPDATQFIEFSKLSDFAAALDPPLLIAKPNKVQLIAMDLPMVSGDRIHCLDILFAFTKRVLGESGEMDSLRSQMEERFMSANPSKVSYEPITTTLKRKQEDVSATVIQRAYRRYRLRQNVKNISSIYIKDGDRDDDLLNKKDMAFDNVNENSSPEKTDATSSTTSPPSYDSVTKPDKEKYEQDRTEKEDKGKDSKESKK
hNav1.7, sequence (Q07699 19-218 partner): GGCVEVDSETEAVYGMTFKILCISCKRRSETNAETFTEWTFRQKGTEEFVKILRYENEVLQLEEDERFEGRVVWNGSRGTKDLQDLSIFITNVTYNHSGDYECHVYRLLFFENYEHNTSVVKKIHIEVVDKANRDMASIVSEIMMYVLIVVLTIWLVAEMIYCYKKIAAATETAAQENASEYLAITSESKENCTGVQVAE
hNav1.7, sequence (O60939 30-215 partner): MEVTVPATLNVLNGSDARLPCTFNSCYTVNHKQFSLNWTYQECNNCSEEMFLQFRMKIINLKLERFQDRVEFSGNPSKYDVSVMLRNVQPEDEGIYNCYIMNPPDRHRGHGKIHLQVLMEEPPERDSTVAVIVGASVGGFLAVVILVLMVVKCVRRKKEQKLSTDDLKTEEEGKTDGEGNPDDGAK

As a reminder, the IC50 is the midpoint of a concentration-inhibition curve. The low end stands for greater potency, the high end for weaker potency. On hNav1.7, `O=S(=O)(Nc1ncns1)c1cc(F)c(O[C@@H]2CCCC[C@@H]2c2ccccc2)cc1F` (relative stereo) [Example 3, 2,5-Difluoro-4-{[(1R*,2R*)-2-phenylcyclohexyl]oxy}-N-(1,2,4-thiadiazol-5-yl)benzenesulfonamide] displayed an IC50 of 0.27 µM. This counts as sub-micromolar.
In the case of `CC(C)C[C@H](CN)CC(=O)O` [pregabalin], the “effective therapeutic ratio based on self-evaluation of patients” value in experiment [1] was “approximately 50%”.
